Laboratory results from US6933313B2, “Substituted carbazoles as inhibitors of sPLA2” (Eli Lilly and Company, priority 2001, dated 2005).
Each block holds one molecule with its values, some of them ahead of it.

Target: T1, recombinant human secreted phospholipase A2 (Homo sapiens, UniProt P14555)
T1 sequence (P14555 21-144): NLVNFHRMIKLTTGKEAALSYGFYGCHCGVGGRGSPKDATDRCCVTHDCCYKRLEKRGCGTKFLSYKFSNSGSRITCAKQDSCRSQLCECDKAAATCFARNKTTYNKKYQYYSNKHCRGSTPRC
Assay: Chromogenic assay for inhibitors of recombinant human secreted phospholipase A2 (Assay Example 1)
Format: biochemical
Settings: diheptanoyl thio-PC substrate, pH 7.5, absorbance at 405 nm, triplicate
Text: The following chromogenic assay procedure was used to identify and evaluate inhibitors of recombinant human secreted phospholipase A2. The assay described herein has been adapted for high volume screening using 96 well microtiter plates. A general description of this assay method is found in the article, “Analysis of Human Synovial Fluid Phospholipase A2 on Short Chain Phosphatidylcholine-Mixed Micelles: Development of a Spectrophotometric Assay Suitable for a Microtiterplate Reader”, by Laure J. Reynolds, Lori L. Hughes, and Edward A Dennis, Analytical Biochemistry, 204, pp. 190-197, 1992 (the disclosure of which is incorporated herein by reference):
REACTION BUFFER— • CaCl2·2H2O (1.47 g/L) • KCl (7.455 g/L) • Bovine Serum Albumin (fatty acid free) (1 g/L)(Sigma A-7030, product of Sigma Chemical Co., St. Louis Mo., USA) • TRIS HCl (3.94 g/L) • TRIS=(tris(hydroxymethyl)aminomethane) pH 7.5 (adjust with NaOH)
ENZYME BUFFER— • 0.05 NaOAc·3H2O, pH 4.5 • 0.2 NaCl • Adjust pH to 4.5 with acetic acid
DTNB— • 5,5′-dithiobis-2-nitrobenzoic acid
RACEMIC DIHEPTANOYL THIO—PC • racemic 1,2-bis(heptanoylthio)-1,2-dideoxy-sn-glycero-3-phosphorylcholine • TRITON X-100 prepare at 6.249 mg/ml in reaction buffer to equal […] • TRITON X-100 is a polyoxy ethylene non-ionic detergent supplied by Pierce Chemical Company, 3747 N. Meridian Road, Rockford, Ill. 61101.
REACTION MIXTURE— • A measured volume of racemic dipheptanoyl thio PC supplied in chloroform at a concentration of 100 mg/ml is taken to dryness and redissolved in 10 millimolar TRITON X-100 nonionic detergent aqueous solution. Reaction Buffer is added to the solution, then DTNB to give the Reaction Mixture.
The reaction mixture thus obtained contains 1 mM diheptanoly thio-PC substrate, 0.29 mm TRITON X-100 detergent, and 0.12 mm DTMB in a buffered aqueous solution at pH 7.5.
• 1. Add 0.2 ml reaction mixture to all wells; • 2. Add 10 ul test compound (or solvent blank) to appropriate wells, mix 20 seconds; • 3. Add 50 nanograms of sPLA2 (10 microliters) to appropriate wells; • 4. Incubate plate at 40° C. for 30 minutes; • 5. Read absorbance of wells at 405 nanometers with an automatic plate reader.
All compounds were tested in triplicate. Typically, compounds were tested at a final concentration of 5 ug/ml. […] Lack of color development at 405 nanometers evidenced inhibition. Compounds initially found to be active were reassayed to confirm their activity and, if sufficiently active, IC50 values were determined. […] In all cases, % inhibition measured at 405 nanometers generated by enzyme reactions containing inhibitors relative to the uninhibited control reactions was determined. Each sample was titrated in triplicate and result values were averaged for plotting and calculation of IC50 values. IC50 were determined by plotting log concentration versus inhibition values in the range from 10-90% inhibition.

Compound: CONC(=O)COc1cccc2c1c1c(C(N)=O)cccc1n2Cc1ccccc1 [Example 2, [[5-Carbamoyl-9-(phenylmethyl)carbazol-4-yl]oxy]-N-(methoxy)acetamide]
IC50: 18.7 nM

Compound: CCONC(=O)COc1cccc2c1c1c(C(N)=O)cccc1n2Cc1ccccc1 [Example 3, [[5-Carbamoyl-9-(phenylmethyl)carbazol-4-yl]oxy]-N-(ethoxy)acetamide]
IC50: 19.3 nM

Compound: CON(C)C(=O)COc1cccc2c1c1c(C(N)=O)cccc1n2Cc1ccccc1 [Example 5, [[5-Carbamoyl-9-(phenylmethyl)carbazol-4-yl]oxy]-N-(methoxy)-N-(methyl)acetamide]
IC50: 42.5 nM

Compound: NC(=O)c1cccc2c1c1c(OCC(=O)NOCc3ccccc3)cc(-c3cccs3)cc1n2Cc1ccccc1 [Example 7, [[5-Carbamoyl-9-(phenylmethyl)-2-(thien-2-yl)carbazol-4-yl]oxy]-N-[(phenylmethyl)oxy]acetamide]
IC50: 29 nM

Other lines, results leading:

IC50: 18.3 nM
Compound: NC(=O)c1cccc2c1c1c(OCC(=O)NO)cccc1n2Cc1ccccc1 [Example 1, [[5-Carbamoyl-9-(phenylmethyl)carbazol-4-yl]oxy]-N-(hydroxy)acetamide]

IC50: 17 nM
Compound: NC(=O)c1cccc2c1c1c(OCC(=O)NOCc3ccccc3)cccc1n2Cc1ccccc1 [Example 4, [[5-Carbamoyl-9-(phenylmethyl)carbazol-4-yl]oxy]-N-[(phenylmethyl)oxy]acetamide]
